For series [1], the system named is Spontaneous hypertensive rats. In words: Hypotensive action in spontaneous hypertensive rats, oral (tail artery pressure, plethysmography; Table 1). The class given is in vivo, rat (spontaneous hypertensive, male). The settings on record: spontaneous hypertensive rats. An excerpt:
(§1) dl-α-tocopheryl 5-butylpicolinate and dl-α-tocopherol were used after they were each dissolved in a suitable amount of ethyl ether, mixed with a solution containing 2% of Tween 80 and 2% of Span 40 and after removing ethyl ether, uniformly emulsified. 5-Butylpicolinic acid was used as a solution in 2% Tween 80+2% Span.
(§2) Spontaneous hypertensive rats (male, body weight 350 to 370 g) and Wistar rats with a normal blood pressure level (female, body weight 250 to270 g), three per group, were used. Without anesthesia, the pressure of the tail artery was measured by plethysmography.

In the next series the test system is Normotensive Wistar rats. In words: Hypotensive action in normotensive Wistar rats, oral (tail artery pressure, plethysmography; Table 2). The class given is in vivo, rat (Wistar, female). The settings on record: 50 mg/kg oral, normotensive Wistar rats.
Description: as §1, §2

The next series is described as follows: in vivo. The settings on record: mouse. The procedure:
ddY-Strain female mice (body weight about 20 g), five per group, were used and each of the test compounds was orally or intraperitoneally administered, and two days after the administration, the number of dead mice was counted. From it, the acute toxicity LD50 of each of the compounds was determined by the Behrens-Kraerber method.

Another series has as its system stomach of rats. In words: Side-effects: gastric trouble after oral administration for 4 consecutive days. The class given is in vivo, rat. The settings on record: 100 mg/kg. The procedure: dl-α-Tocopheryl 5-butylpicolinate of the invention and 5-butylpicolinic acid as a control were administered orally to rats for 4 consecutive days at a dose of 300 mg/kg (90.9 mg/kg calculated for 5-butylpicolinic acid) and 100 mg/kg. Then, the stomach of each rat was incised and observed for the occurrence of a gastric trouble.

Data on 1 molecule can be found in US4443459A, “α-Tocopheryl ester of 5-substituted picolinic acid and hypotensive composition containing it” (Banyu Pharmaceutical Co., Ltd., priority 1981, dated 1984).

By LD50 is commonly meant the dose expected to kill half of the subjects tested. Higher therefore signals lower toxicity.

Consider `CCCCc1ccc(C(=O)O)nc1` [B, 5-butylpicolinic acid, reference compound], for which the figures for the “Blood pressure lowering rate, 1h” value (in series [1] (3.125 mg/kg oral); in series [1] (12.5 mg/kg oral); in the series with Normotensive Wistar rats (1h)) were 16.9%, 35.7% and 27.0%, respectively. Also, the “Blood pressure lowering rate, 2h” value in series [1] (3.125 mg/kg oral) came to 0.7%; in series [1] (12.5 mg/kg oral), 21.7%; in the series with Normotensive Wistar rats (2h), 33.5%. The “Blood pressure lowering rate, 3h” value in series [1] (3.125 mg/kg oral) is on record as 0%; in series [1] (12.5 mg/kg oral), 11.8%; with Normotensive Wistar rats (3h) it was 26.2%. Moreover, the “Blood pressure lowering rate, 4h” value (in series [1] (3.125 mg/kg oral); in series [1] (12.5 mg/kg oral); with Normotensive Wistar rats (4h)) was 0% throughout. The LD50 at 48 h was 89 mg/kg in the series “in vivo” (ip) and 180 mg/kg in the series “in vivo” (po). Further, the “occurrence of gastric trouble” value in the series with stomach of rats is “Light degrees of edema, congestion, or bleeding were noted in the stomachs of all cases (five rats)”.
